Test results published in US6984649B1, “Pyridine derivatives” (Bayer Aktiengesellschaft, priority 2000, dated 2006).
Structures can show the parent of a compound that is named as a salt.

tested on: A549 human lung epithelium cell line; assay: RANTES production in response to TNF-α from A549 cells; assay type: cell-based; conditions: Homo sapiens, A549, A549 cells, 100 ng/ml TNF-α, read-out: Cellular activity grade (A549) (Cellular IC50)
In short: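 Cells (4×10^4/well) in D-MEM/10% FCS preincubated 1 h at 37 °C with compound in 1% DMSO, then stimulated with 100 ng/ml TNF-α for 24 h. Supernatant RANTES quantified by Eu-labelled sandwich immunoassay (time-resolved fluorescence, ex 340/em 615 nm) against recombinant human RANTES standard.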

SMILES	IC50 [nM]
Nc1nc(-c2c(O)cccc2OCC2CC2)cc(C2CCCNC2)c1C(=O)O (centres unmarked) [Example 9-3, 2-amino-6-[2-(cyclopropylmethoxy)-6-hydroxyphenyl]-4-(3-piperidinyl)nicotinic acid hydrochloride]	> 10000
Cn1c(=O)[nH]c2nc(-c3ccccc3O)cc(C3CCCNC3)c2c1=O (centres unmarked) [Example 10-1, 7-(2-hydroxy-phenyl)-3-methyl-5-piperidin-3-yl-1H-pyrido[2,3-d]pyrimidine-2,4-dione hydrochloride]	1000 to 10000
Nc1nc(-c2ccccc2O)cc(C2CCCNC2)c1CO (centres unmarked) [Example 11-1, 2-[6-amino-5-(hydroxymethyl)-4-(3-piperidinyl)-2-pyridinyl]phenol hydrochloride]	< 1000
Nc1nc(-c2c(O)cccc2F)cc(C2CCCNC2)c1CO (centres unmarked) [Example 11-2, 2-[6-amino-5-(hydroxymethyl)-4-(3-piperidinyl)-2-pyridinyl]-3-fluorophenol hydrochloride]	< 1000
Nc1nc(-c2ncccc2O)cc(C2CCCNC2)c1CO (centres unmarked) [Example 11-3, 6′-amino-5′-(hydroxymethyl)-4′-3-piperidinyl)-2,2′-bipyridin-3-ol hydrochloride]	< 1000
Nc1nc(-c2ccccc2O)cc(C2=CCCNC2)c1CO [Example 11-4, 2-[6′-amino-5′-(hydroxymethyl)-1,2,5,6-tetrahydro-3,4′-bipyridin-2′-yl]phenol hydrochloride]	< 1000
Nc1nc(-c2c(O)cccc2OCC2CC2)cc(C2CCCNC2)c1CO (centres unmarked) [Example 12-1, 2-[6-amino-5-(hydroxymethyl)-4-(3-piperidinyl)-2-pyridinyl]-3-(cyclopropylmethoxy)phenol hydrochloride]	< 1000
COCc1c(C2CCCNC2)cc(-c2ccccc2O)nc1N (centres unmarked) [Example 13-1, 2-[6-amino-5-(methoxymethyl)-4-(3-piperidinyl)-2-pyridinyl]phenol hydrochloride]	< 1000
Cc1c(C2CCCNC2)cc(-c2ccccc2O)nc1N (centres unmarked) [Example 14-1, 2-[6-amino-5-methyl-4-(3-piperidinyl)-2-pyridinyl]phenol hydrochloride]	< 1000
CC(O)c1c(C2CCCNC2)cc(-c2ccccc2O)nc1N (centres unmarked) [Example 15-1, 2-[6-amino-5-(1-hydroxyethyl)-4-(3-piperidinyl)-2-pyridinyl]phenol hydrochloride]	1000 to 10000
Nc1nc(-c2ccccc2O)cc(C2CCCNC2)c1C(O)c1ccccc1 (centres unmarked) [Example 15-2, 2-[6-amino-5-[hydroxy(phenyl)methyl]-4-(3-piperidinyl)-2-pyridinyl]phenol hydrochloride]	1000 to 10000
CC(=O)c1c(C2CCCNC2)cc(-c2ccccc2O)nc1N (centres unmarked) [Example 15-3, 1-[2-amino-6-(2-hydroxyphenyl)4-(3-piperidinyl)-3-pyridinyl]ethanone hydrochloride]	< 1000
Oc1ccccc1-c1cc(C2CCCNC2)c2cn[nH]c2n1 (centres unmarked) [Example 16-1, 2-(4-Piperidin-3-yl-1H-pyrazolo[3,4-b]pyridin-6-yl)-phenol hydrochloride]	1000 to 10000
Oc1cccc(OCC2CC2)c1-c1cc(C2CCCNC2)c2c(n1)NCOC2 (centres unmarked) [Example 17-1, 3-(cyclopropylmethoxy)-2-[5-(3-piperidinyl)-1,4-dihydro-2H-pyrido[2,3-d][1,3]oxazin-7-yl]-phenol hydrochloride]	< 1000
O=C1Nc2nc(-c3ccccc3O)cc(C3CCCNC3)c2CO1 (centres unmarked) [Example 18-2, 7-(2-hydroxyphenyl)-5-(3-piperidinyl)-1,4-dihydro-2H-pyrido[2,3-d][1,3]oxazin-2-one hydrochloride]	< 1000
CC1OC(=O)Nc2nc(-c3ccccc3O)cc(C3CCCNC3)c21 (centres unmarked) [Example 18-3, hydrochloride]	1000 to 10000
NC(Cc1ccccc1)c1cc(-c2ccccc2O)nc2c1COC(=O)N2 (centres unmarked) [Example 18-4/18-5, 5-(1-Amino-2-phenyl-ethyl)-7-(2-hydroxy-phenyl)-1,4-dihydro-pyrido[2,3-d][1,3]oxazin-2-one hydrochloride]	1000 to 10000
O=C1Nc2nc(-c3ccccc3O)cc(C3=CCCNC3)c2CO1 [Example 18-6]	< 1000
Nc1nc(-c2c(O)cccc2OCc2ccccc2)cc2c1CN1CCCC2C1 (centres unmarked) [Example 20-1, 2-(6-amino-5,9-diazatricyclo[7.3.1.02,7]trideca-2,4,6-trien-4-yl)-3-(benzyloxy)phenol hydrochloride]	> 10000

SMILES	IC50 [nM]
Nc1nc(-c2ccccc2O)cc2c1CN[C@@H]2Cc1ccccc1 [Example 20-2, 2-[(1R)-4-amino-1-benzyl-2,3-dihydro-1H-pyrrolo[3,4-d]pyridin-6-yl]phenol hydrochloride]	1000 to 10000
Nc1nc(-c2c(O)cccc2OCC2CC2)cc(C2CCCNC2)c1CSc1ccccc1 (centres unmarked) [Example 21-1, 2-[6-amino-5-[(phenylsulfanyl)methyl]-4-(3-piperidinyl)-2-pyridinyl]-3-(cyclopropylmethoxy)phenol hydrochloride]	1000 to 10000
Nc1nc(-c2c(O)cccc2OCC2CC2)cc(C2CCNCC2)c1Cn1ccnc1 [Example 21-2, 2-[6-amino-5-(1H-imidazol-1-ylmethyl)-4-(4-piperidinyl)-2-pyridinyl]-3-(cyclopropylmethoxy)phenol hydrochloride]	< 1000
Nc1nc(-c2c(O)cccc2OCC2CC2)cc(C2CCNCC2)c1COc1ccccc1 [Example 21-3, 2-[6-amino-5-(phenoxymethyl)-4-(4-piperidinyl)-2-pyridinyl]-3-(cyclopropylmethoxy)phenol hydrochloride]	< 1000
Nc1nc(-c2c(O)cccc2OCC2CC2)cc(C2CCNCC2)c1CON1C(=O)CCC1=O [Example 21-4, 1-{[2-amino-6-[2-(cyclopropylmethoxy)-6-hydroxyphenyl]-4-(4-piperidinyl)-3-pyridinyl]methoxy}-2,5-pyrrolidinedione hydrochloride]	< 1000
O=C1NCc2c(C3CCCNC3)cc(-c3ccccc3O)nc2N1 (centres unmarked) [Example 22-1, 7-(2-hydroxyphenyl)-5-(3-piperidinyl)-3,4-dihydropyrido[2,3-d]pyrimidin-2(1H)-one hydrochloride]	1000 to 10000
O=C1NCc2c(C3CCCNC3)cc(-c3c(O)cccc3OCC3CC3)nc2N1 (centres unmarked) [Example 22-2, 7-[2-(cyclopropylmethoxy)-6-hydroxyphenyl]-5-(3-piperidinyl)-3,4-dihydro-1H-pyrido[2,3-d]-pyrimidin-2-one hydrochloride]	< 1000
O=C1NCc2c(C3CCNCC3)cc(-c3c(O)cccc3OCC3CC3)nc2N1 [Example 22-3, 7-[2-(cyclopropylmethoxy)-6-hydroxyphenyl]-5-(4-piperidinyl)-3,4-dihydro-1H-pyrido[2,3-d]pyrimidin-2-one hydrochloride]	< 1000
O=S1(=O)NCc2c(C3CCCNC3)cc(-c3ccccc3O)nc2N1 (centres unmarked) [Example 22-5, 2-[2,2-dioxido-5-(3-piperidinyl)-3,4-dihydro-1H-pyrido[2,3-c][1,2,6]thiadiazin-7-yl]phenol hydrochloride]	1000 to 10000
CC(=O)NCc1c(C2CCCNC2)cc(-c2c(O)cccc2OCC2CC2)nc1N (centres unmarked) [Example 23-1, N-{[2-amino-6-[2-(cyclopropylmethoxy)-6-hydroxyphenyl]-4-(3-piperidinyl)-3-pyridinyl]methyl}acetamide hydrochoride]	< 1000
CCOC(=O)NCc1c(C2CCCNC2)cc(-c2c(O)cccc2OCC2CC2)nc1N (centres unmarked) [Example 23-2, ethyl [2-amino-6-[2-(cyclopropylmethoxy)-6-hydroxyphenyl]-4-(3-piperidinyl)-3-pyridinyl]methylcarbamate hydrochloride]	< 1000
Nc1nc(-c2c(O)cccc2OCC2CC2)cc(C2CCCNC2)c1CNC(=O)NC1CCCCC1 (centres unmarked) [Example 23-3, N-{[2-amino-6-[2-(cyclopropylmethoxy)-6-hydroxyphenyl]-4-(3-piperidinyl)-3-pyridinyl]methyl}-N′-cyclohexylurea hydrochloride]	< 1000
CC(=O)N1Cc2c(C3CCCNC3)cc(-c3c(O)cccc3OCC3CC3)nc2NC1=O (centres unmarked) [Example 24-1, 3-acetyl-7-[2-(cyclopropylmethoxy)-6-hydroxyphenyl]-5-(3-piperidinyl)-3,4-dihydropyrido[2,3-d]pyrimidin-2(1H)-one hydrochloride]	< 1000
Oc1cccc(OCC2CC2)c1-c1cc(C2CCCNC2)c2c(n1)NCCC2 (centres unmarked) [Example 28-01, 3-(cyclopropylmethoxy)-2-[4-(3-piperidinyl)-5,6,7,8-tetrahydro-1,8-naphthyridin-2-yl]phenol]	< 1000
Nc1cc2c(C3CCCNC3)cc(-c3c(O)cccc3OCC3CC3)nc2[nH]c1=O (centres unmarked) [Example 29-01, 3-amino-7-[2-(cyclopropylmethoxy)-6-hydroxyphenyl]-5-(3-piperidinyl)-1,8-naphthyridin-2(1H)-one hydrochloride]	< 1000
O=C(Nc1cc2c(C3CCCNC3)cc(-c3c(O)cccc3OCC3CC3)nc2[nH]c1=O)c1ccccc1 (centres unmarked) [Example 29-2, N-[7-[2-(cyclopropylmethoxy)-6-hydroxyphenyl]-2-oxo-5-(3-piperidinyl)-1,2-dihydro-1,8-naphthyridin-3-yl]benzamide hydrochloride]	1000 to 10000
CC(=O)Nc1cc2c(C3CCCNC3)cc(-c3c(O)cccc3OCC3CC3)nc2[nH]c1=O (centres unmarked) [Example 29-3, N-[7-[2-(cyclopropylmethoxy)-6-hydroxyphenyl]-2-oxo-5-(3-piperidinyl)-1,2-dihydro-1,8-naphthyridin-3-yl]acetamide hydrochloride]	< 1000
O=C(O)c1cc2c(C3CCCNC3)cc(-c3c(O)cccc3OCC3CC3)nc2[nH]c1=O (centres unmarked) [Example 30-1, 7-(2-cyclopropylmethoxy-6-hydroxy-phenyl)-2-oxo-5-piperidin-3-yl-1,2-dihydro[1,8]naphthyridine-3-carboxylic acid hydrochloride]	1000 to 10000
CCCNC(=O)c1cc2c(C3CCCNC3)cc(-c3c(O)cccc3OCC3CC3)nc2[nH]c1=O (centres unmarked) [Example 31-1, 7-[2-(cyclopropylmethoxy)-6-hydroxyphenyl]-2-oxo-5-(3-pipedinyl)-N-propyl-1,2-dihydro-1,8-naphthyridine-3-carboxamide]	< 1000
